Residue numbers refer to the chain shown, from its start.

Here are results for 1 compound from publication PMC9098912, “Molecular basis for inhibiting human glucose transporters by exofacial inhibitors” (Nature Communications, 2022).

Common to all, as to assay: MST binding assay, GLUT3 variant
What all share (settings): read-out: Kd of SA47

The target in one test is T1, GLUT3 N413A (Homo sapiens, UniProt P11169, N413A/N43T).
T1 construct: His10 (N); made in house; host or cells: Sf9 insect cells (baculovirus)
T1 sequence (P11169 1-496 N43T/N413A): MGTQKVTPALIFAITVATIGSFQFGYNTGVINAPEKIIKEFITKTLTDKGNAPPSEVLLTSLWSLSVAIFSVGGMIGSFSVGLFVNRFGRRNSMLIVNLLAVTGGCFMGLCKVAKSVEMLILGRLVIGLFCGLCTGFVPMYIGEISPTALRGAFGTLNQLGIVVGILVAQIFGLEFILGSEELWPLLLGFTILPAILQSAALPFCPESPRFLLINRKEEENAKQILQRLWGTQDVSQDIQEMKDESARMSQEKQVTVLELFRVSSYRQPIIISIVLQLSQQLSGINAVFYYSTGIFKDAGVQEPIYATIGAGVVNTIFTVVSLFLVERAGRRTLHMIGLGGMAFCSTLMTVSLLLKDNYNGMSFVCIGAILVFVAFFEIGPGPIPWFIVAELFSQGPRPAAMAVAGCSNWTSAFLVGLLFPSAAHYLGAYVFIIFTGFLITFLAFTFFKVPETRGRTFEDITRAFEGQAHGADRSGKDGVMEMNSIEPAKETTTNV
How it is done: (§1) All mutants were generated by standard PCR-based strategy.
(§2) Inhibitors with serial dilutions were mixed with indicated protein. […] MST analyses were conducted on a Monolith NT. […] The MST data was analyzed by Monolith NT.115.

Another test concerns the target T2, GLUT3 Q159A (Homo sapiens, UniProt P11169, N43T/Q159A).
T2 construct: His10 (N); made in house; host or cells: Sf9 insect cells (baculovirus)
T2 sequence (P11169 1-496 N43T/Q159A): T1 sequence (P11169 1-496 N43T/N413A) with Q159A, A413N
As for the experimental part: as §1, §2

A further test concerns the target T3, GLUT3 W386A (Homo sapiens, UniProt P11169, N43T/W386A).
T3 construct: His10 (N); made in house; host or cells: Sf9 insect cells (baculovirus)
T3 sequence (P11169 1-496 N43T/W386A): T1 sequence (P11169 1-496 N43T/N413A) with W386A, A413N
As for the experimental part:
as §1, §2

In another test the target is T4, GLUT3 N32A (Homo sapiens, UniProt P11169, N32A/N43T).
T4 construct: His10 (N); made in house; host or cells: Sf9 insect cells (baculovirus)
T4 sequence (P11169 1-496 N32A/N43T): T1 sequence (P11169 1-496 N43T/N413A) with N32A, A413N
As for the experimental part: as §1, §2

For another test, the target named is T5, GLUT3 F289A (Homo sapiens, UniProt P11169, F289A/N43T).
T5 construct: His10 (N); made in house; host or cells: Sf9 insect cells (baculovirus)
T5 sequence (P11169 1-496 N43T/F289A): T1 sequence (P11169 1-496 N43T/N413A) with F289A, A413N
How it is done:
as §1, §2

Consider `COC(=O)CCNCc1ccccc1-n1ncc2c(N3CCN(c4cc(F)ccc4OC)CC3)ncnc21` [SA47], for which the Kd – broadly, the concentration at which binding is half-saturated – is 810 ± 214 nM at GLUT3 N413A; 4100 ± 800 nM on GLUT3 Q159A; 30300 ± 10700 nM at GLUT3 W386A; 941 ± 213 nM on GLUT3 N32A; 164 ± 67 nM on GLUT3 F289A.
